Reference: US11760722B2 (priority 2022, dated 2023)
“And” between values parts separate entries of the source, which are not always exact repeats. Identical values can stand only once. Like-named read-outs stand apart in the source and are kept apart here.

Tested on: SARS-CoV-2 replicon
Assay: microbe, parasite or virus in culture
Format: cell-based
[1] = Severe acute respiratory syndrome coronavirus 2, Huh-7, 24 h; read-out: Replicon EC50

| SMILES | EC50 (read-out: Replicon EC50) | EC50 [1] [nM] | EC50 (Severe acute respiratory syndrome coronavirus 2, Huh-7, 24 h, read-out: Replicon EC50) [nM] |
| --- | --- | --- | --- |
| CC(C)(C)[C@H](NS(=O)(=O)c1ccc(C(F)(F)F)cc1)C(=O)N1C[C@H]2[C@@H]([C@H]1C(=O)N[C@H](C#N)C[C@@H]1CCNC1=O)C2(C)C [Compound 44] | > 30000 nM |  |  |
| CC(C)(C)[C@H](NC(=S)Nc1cccc(C(F)(F)F)c1)C(=O)N1C[C@H]2[C@@H]([C@H]1C(=O)N[C@H](C#N)C[C@@H]1CCNC1=O)C2(C)C [Compound 52] |  | 410 |  |
| CC(C)(C)NC(=S)N[C@H](C(=O)N1C[C@H]2[C@@H]([C@H]1C(=O)N[C@H](C#N)C[C@@H]1CCNC1=O)C2(C)C)C(C)(C)C [Compound 56] |  |  | 370 |
| CN1CCCC1C(=O)N[C@H](C(=O)N1C[C@H]2[C@@H]([C@H]1C(=O)N[C@H](C#N)C[C@@H]1CCNC1=O)C2(C)C)C(C)(C)C (stereo partly drawn) [Compound 58] |  | 4720 |  |
| CNC(C)(C)C(=O)N[C@H](C(=O)N1C[C@H]2[C@@H]([C@H]1C(=O)N[C@H](C#N)C[C@@H]1CCNC1=O)C2(C)C)C(C)(C)C [Compound 59] |  | 16200 |  |
| CC(C)(C)OC(=O)N(C(=O)N1C[C@H]2[C@@H]([C@H]1C(=O)N[C@H](C#N)C[C@@H]1CCNC1=O)C2(C)C)[C@@H]1C[C@H]1C(F)F [Compound 60] |  | > 30000 |  |
| C=CC(=O)N[C@H](C(=O)N1C[C@H]2[C@@H]([C@H]1C(=O)N[C@H](C#N)C[C@@H]1CCNC1=O)C2(C)C)C(C)(C)C [Compound 61] |  | 2740 |  |
| CC(C)(C)[C@H](NS(=O)(=O)N1CC2CC1C2)C(=O)N1C[C@H]2[C@@H]([C@H]1C(=O)N[C@H](C#N)C[C@@H]1CCNC1=O)C2(C)C [Compound 62] |  | 1490 |  |
| CC(C)(C)[C@H](NC(=O)C1CC2(CCC2)C1)C(=O)N1C[C@H]2[C@@H]([C@H]1C(=O)N[C@H](C#N)C[C@@H]1CCNC1=O)C2(C)C [Compound 63] |  | 730 |  |
| CC(C)(C)[C@H](NC(=O)CS(C)(=O)=O)C(=O)N1C[C@H]2[C@@H]([C@H]1C(=O)N[C@H](C#N)C[C@@H]1CCNC1=O)C2(C)C [Compound 64] |  | 990 |  |
| CC1(C(=O)N[C@H](C(=O)N2C[C@H]3[C@@H]([C@H]2C(=O)N[C@H](C#N)C[C@@H]2CCNC2=O)C3(C)C)C(C)(C)C)CCCN1 (stereo partly drawn) [Compound 65] |  | 18700 |  |
| COC1(CC(=O)N[C@H](C(=O)N2C[C@H]3[C@@H]([C@H]2C(=O)N[C@H](C#N)C[C@@H]2CCNC2=O)C3(C)C)C(C)(C)C)CCC1 [Compound 67] |  | > 30000 |  |
| CC(C)(C)[C@H](NC(=O)CC12CC(C(F)(F)F)(C1)C2)C(=O)N1C[C@H]2[C@@H]([C@H]1C(=O)N[C@H](C#N)C[C@@H]1CCNC1=O)C2(C)C [Compound 68] |  | 1920 |  |
| COC12CCC(C(=O)N[C@H](C(=O)N3C[C@H]4[C@@H]([C@H]3C(=O)N[C@H](C#N)C[C@@H]3CCNC3=O)C4(C)C)C(C)(C)C)(CC1)CC2 [Compound 69] |  | 10300 |  |
| Cc1csc(S(=O)(=O)N[C@H](C(=O)N2C[C@H]3[C@@H]([C@H]2C(=O)N[C@H](C#N)C[C@@H]2CCNC2=O)C3(C)C)C(C)(C)C)c1 [Compound 112] | 86 nM | 62 |  |
| C#CCC(=O)N[C@H](C(=O)N1C[C@H]2[C@@H]([C@H]1C(=O)N[C@H](C#N)C[C@@H]1CCNC1=O)C2(C)C)C(C)(C)C [Compound 136] | 320 nM and 420 nM and 540 nM | 300 |  |
| CC(C)(C)[C@H](NS(=O)(=O)c1ccsc1)C(=O)N1C[C@H]2[C@@H]([C@H]1C(=O)N[C@H](C#N)C[C@@H]1CCNC1=O)C2(C)C [Compound 139] | 160 nM | 140 |  |
| CCOc1ccccc1S(=O)(=O)N[C@H](C(=O)N1C[C@H]2[C@@H]([C@H]1C(=O)N[C@H](C#N)C[C@@H]1CCNC1=O)C2(C)C)C(C)(C)C [Compound 143] | 130 nM | 65 |  |
| CC(C)(C)[C@H](NC(=O)C(F)(F)OCC(F)(F)F)C(=O)N1C[C@H]2[C@@H]([C@H]1C(=O)N[C@H](C#N)C[C@@H]1CCNC1=O)C2(C)C [Compound 144] | 180 nM | 110 |  |
